From patent US5473096A, “Substituted benzoate derivatives” (Shionogi & Co., Ltd., priority 1992, dated 1995) come the findings set out here.

Each structure is given as a SMILES string.

By IC50 is commonly meant the concentration that gives 50% inhibition. A lower IC50 goes with higher potency.

The assay concerns the target T1, PLA2 (phospholipase A2) from rat platelets (Rattus norvegicus, UniProt P14423).
T1 construct: from tissue; host or cells: rat platelets
T1 sequence (P14423 22-146): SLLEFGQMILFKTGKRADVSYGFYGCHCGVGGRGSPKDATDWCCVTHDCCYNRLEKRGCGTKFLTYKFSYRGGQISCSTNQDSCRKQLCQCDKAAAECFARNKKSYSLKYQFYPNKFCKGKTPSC
Kind of assay: Phospholipase A2 inhibitory activity (release of free fatty acid from 14C-labelled phosphatidylethanolamine). To be noted: rat platelet PLA2; Tris-buffer 0.1M, pH 7.4; CaCl2 3 mM; 37° C., 20 minutes. It is filed as biochemical. The protocol:
The compounds of the present invention were tested for their Phospholipase A2 inhibitory activity by the following procedure.
1-Palmitoyl-2-[1-^14 C]-linoleoyl L-3-Phosphatidylethanolamine (Amersham, Inc., 59 mCi/mmol) were diluted with L-α-phosphatidylethanolamine (Sigma, Co., from […]) [2,000 dpm/nmol], and the dilution was sonicated. The resultant dilution was used as a substrate. The PLA2 (phospholipase A2) which was used in the test was from rat platelets. The PLA2 and the substrate preparation were added to a solution of CaCl2 (3 mM)in Tris-buffer (0.1M, pH 7.4), and the mixture was allowed to react at 37° C. for 20 minutes. Then, the reaction was terminated by adding 1.25 ml of Dole's reagent to the reaction mixture and stirring immediately the resultant mixture. To the mixture was added 0.5 ml of distilled water and 0.8 ml of n-heptane, and the mixture was stirred, centrifuged, and the resulting supernatant was taken into another tube. To this supernatant were added additional 0.8 ml of n-heptane and silica gel, and the mixture was stirred, centrifuged, and then the supernatant was taken into vials. Toluene cocktails were added to the vials. The amount of free fatty acid released from PLA2 (DPM value) was determined using liquid scintillation counter.
Inhibitory activity (%) was estimated by the formula: [(DPM value at the addition of the inhibitor-DPM value without PLA2)/(DPM value with only PLA2 -DPM value without PLA2)]×100.
Consider `COc1c(C)c(OC(=O)c2c(C)c(C)c(OC(=O)c3c(C)c(CNCC(=O)OCc4ccccc4)c(O)c(C)c3O)c(C)c2OC)c(C)c(C)c1C(=O)O` [Compound 1a, 4-[4'-(4"-Carboxy-3"-methoxy-2",5",6"-trimethylphenoxycarbony)-3'-methoxy-2',5',6'-trimethylphenoxycarbonyl]-2,5-dimethyl-6-benzyloxyglycylmethylresorcinol], for which the IC50 was determined as 0.026 µM.

In the case of `CCOC(=O)CNCc1c(C)c(C(=O)Oc2c(C)c(C)c(C(=O)Oc3c(C)c(C)c(C(=O)O)c(OC)c3C)c(OC)c2C)c(O)c(C)c1O` [Compound 1b], the IC50 came out at 0.17 µM. Against the preceding compound, the IC50 is about 6.5-fold higher.

In the case of `COc1ccc(CCOCc2c(C)c(C(=O)Oc3c(C)c(C)c(C(=O)Oc4c(C)c(C)c(C(=O)O)c(OC)c4C)c(OC)c3C)c(O)c(C)c2O)cc1` [Compound 1c], the IC50 was 0.16 µM.

On to `CCCCOCc1c(C)c(C(=O)Oc2c(C)c(C)c(C(=O)Oc3c(C)c(C)c(C(=O)O)c(OC)c3C)c(OC)c2C)c(O)c(C)c1O` [Compound 1d], for which it took 0.12 µM to reach half-maximal inhibition (IC50).

`COc1c(C)c(OC(=O)c2c(C)c(C)c(OC(=O)c3c(C)c(CNCCCCC(NC(=O)OCc4ccccc4)C(N)=O)c(O)c(C)c3O)c(C)c2OC)c(C)c(C)c1C(=O)O` (stereo not drawn) [Compound 1e]: the 50% inhibitory concentration (IC50) is 1.1 µM. Compared with the last compound, the IC50 is about 9.2-fold higher.

As for `COc1c(C)c(OC(=O)c2c(C)c(C)c(OC(=O)c3c(C)c(CO)c(O)c(C)c3O)c(C)c2OC)c(C)c(C)c1C(=O)O` [Compound 1f], the IC50 amounted to 0.38 µM. Against the preceding compound, the IC50 is about 2.9-fold lower.

`COCc1c(C)c(C(=O)Oc2c(C)c(C)c(C(=O)Oc3c(C)c(C)c(C(=O)O)c(OC)c3C)c(OC)c2C)c(O)c(C)c1O` [Compound 1g]: the IC50 was 0.34 µM. This IC50 and that of the compound before are within 1.5-fold of each other.

Compound `COCc1c(C)c(C(=O)Oc2c(C)c(C)c(C(=O)O)c(OC)c2C)c(OC)c(C)c1O` [Compound 1i] displayed an IC50 of 3.9 µM.

Consider `COc1c(C)c(OC(=O)c2c(C)c(C)c(OC(=O)c3c(C)c(CN[C@H](C)c4ccccc4)c(O)c(C)c3O)c(C)c2OC)c(C)c(C)c1C(=O)O` [Compound 6b, 4-[4'-[5"-(Sec-phenethylaminomethyl)-2",4"-dihydroxy-3",6"-dimethylphenylcarboxy]-2'-methoxy-3',5',6'-trimethyl]phenylcarboxy-2-methoxy-3,5,6-trimethyl benzoic acid], for which 0.3 µM corresponded to half-maximal inhibition (IC50).
